In brackets after ≈: the same amount, converted by molar mass.
Experiments:
[1] = system: CHIKV (strain 181/25mKate); assay: microbe, parasite or virus in culture; format: cell-based; details: Chikungunya virus, NHDF; for log reduction at 10 µM: 72 h, read-out: titer redn, log
Mouse plasma stability = details: male, CD-1, mouse
[2] = Liver microsomal stability; details: CD-1, mouse, microsomes
[3] = Kinetic solubility determination; details: for solubility kinetic at 24 h: pH 7.4, aqueous buffer, kinetic from dmso stock
[4] = Plasma protein binding (equilibrium dialysis); details: male, CD-1, mouse
[5] = Cytotoxicity assay (CellTiter Glo) in NHDF cells; details: human, CC50, NHDF cells, maximum 40 μM
NHDF cells = assay: Cytotoxicity assay (CellTiter Glo) in NHDF cells; details: NHDF cells, 72 h, maximum 40 μM
[6] = Cytotoxicity in Vero E6 cells (live cell count, high-content imaging); details: African green monkey
physchem = details: pH 7.4

| Compound | log reduction at 10 µM [1] | CC50 at 72 h [5] [µM] | further results |
| --- | --- | --- | --- |
| COc1c(F)cc(-n2c([C@H]3CCCCN3)nc3cc(N4CCN(C(C)C)CC4)c(Cl)cc3c2=O)cc1F [(R)-1h] | 4.1 | ~19 | EC50 ([1]; read-out: EC50 (titer reduction assay, dose response)): 0.86 µM; half-life (Mouse plasma stability): > 4 h; half-life [2]: > 2.42 h; boost in aqueous solubility compared to rac-1x ([3]; PBS buffer, pH 7.4): 5 fold; solubility kinetic at 24 h [3]: 183 µM (≈ 97.4 µg/mL); fraction unbound at 4 h, 2 μM [4]: 0.232; CC50 (NHDF cells): 18.6 µM; CC50 at 20 h [6]: > 20 µM |
| COc1c(F)cc(-n2c([C@H]3CCCN3)nc3cc(N4CCN(C(C)C)CC4)c(Cl)cc3c2=O)cc1F [(R)-1d] | 2.3 | 19 |  |
| COc1c(F)cc(-n2c([C@@H]3CCCNC3)nc3cc(N(C)CCN(C)C)c(Cl)cc3c2=O)cc1F [(R)-1q] | 0.6 | 26.6 |  |
| CC(C)N1CCN(c2cc3nc([C@H]4CCCNC4)n(-c4ccc(Cl)cc4)c(=O)c3cc2Cl)CC1 [(S)-1v] | 2 | 17.2 |  |
| COc1c(F)cc(-n2c(C3CCCCN3)nc3cc(N4CCN(C(C)C)CC4)c(Cl)cc3c2=O)cc1F (racemic) [rac-1h] | 1.3 | > 40 | CC50 (NHDF cells; listed as racemic 1h): without observed cytotoxicity |
| COc1c(F)cc(-n2c([C@H]3CCCN3)nc3cc(N4CCN(C(C)C)CC4)c(F)cc3c2=O)cc1F [(R)-1b] | 1.3 | > 40 |  |
| CC(C)N1CCN(c2cc3nc(C4CCCCN4)n(-c4ccc(Cl)cc4)c(=O)c3cc2Cl)CC1 (racemic) [rac-1x] | ~4 | 20.9 | logD (physchem): 2.3; half-life (Mouse plasma stability): > 4.82 h; half-life [2]: > 2.42 h; solubility kinetic at 24 h [3]: 34.6 µM (≈ 17.3 µg/mL); fraction unbound at 4 h, 2 μM [4]: 0.033 |
| COc1c(F)cc(-n2c([C@@H]3CCCNC3)nc3cc(N4CCN(C)CC4)c(Cl)cc3c2=O)cc1F [(R)-1m] | 2.2 | 23.3 |  |
| CC(C)N1CCN(c2cc3nc([C@H]4CCCNC4)n(-c4ccccc4)c(=O)c3cc2Cl)CC1 [(S)-1s] | 1 | > 40 |  |
| COc1c(F)cc(-n2c([C@@H]3CCCNC3)nc3ccc(Cl)cc3c2=O)cc1F [(R)-1ab] | 0 | > 40 |  |
| CC(C)N1CCN(c2cc3nc([C@@H]4CCCNC4)n(-c4ccc(Cl)cc4)c(=O)c3cc2Cl)CC1 [(R)-1v] | 3.4 | 14.2 |  |
| CC(C)N1CCN(c2cc3nc([C@H]4CCCNC4)n(-c4cccc(Cl)c4)c(=O)c3cc2Cl)CC1 [(S)-1w] | 2.6 | 14.8 |  |
| COc1c(F)cc(-n2c([C@@H]3CCCNC3)nc3cc(N4CCN(C5CCN(C)CC5)CC4)c(Cl)cc3c2=O)cc1F [(R)-1l] | 2.8 | 11.6 |  |

From paper PMC12621019, “Restructuring Antiviral Quinazolinone Frameworks to Derive and Optimize Inhibitors of Chikungunya Virus” (ACS Medicinal Chemistry Letters, 2025)
